{"source": "patent US20220249598A1", "about": "“COMPOSITIONS TARGETING SPERM CALCINEURIN” (Kent State University, priority 2019, published 2022)", "key": {"[1]": {"settings": "cited from earlier work"}, "[2]": {"settings": "0.1% tacrolimus formulations; cited from earlier work"}, "mouse caudal spermatozoa [3]": {"test_system": "mouse caudal spermatozoa", "experiment": "in vitro fertilization (IVF) with inhibitor-treated spermatozoa, two-cell stage formation", "format": "cell-based", "procedure": "Nanomolar doses of FK506 were used to treat spermatozoa and then use those cells were used for in vitro fertilization (IVF) assays. The treated spermatozoa were exposed to three different types oocyte conditions while performing IVF: a) regular IVF with intact oocyte-cumulus complex, b) cumulus-free intact oocyte and c) cumulus-free zona-free oocyte.\nA) Spermatozoa were incubated under capacitating medium (viz. […] Additionally, oocytes were also incubated with same concentration of FK506, which it encounters during the IVF, the corresponding spermatozoa set was untreated. […] B) Dose response curve of FK506 at 0, 2.5, 5, 10, 20 & 50 nM concentration."}, "mouse sperm": {"test_system": "mouse sperm", "experiment": "sperm motility / hyperactivation by computer assisted sperm analyzer (CASA)", "format": "cell-based", "settings": "FK506 treatment 120-180 min, capacitation; FIG. 2B", "procedure": "Another set of treated sperm cell was analyzed for its motility parameters using computer assisted sperm analyzer (CASA). Average path velocity (VAP), curvilinear velocity (VCL) and amplitude of lateral head displacement (ALH) were measured to assess hyperactivation. FIG. 2 illustrates the detection of FK506 induced defect in sperm motility and oocyte penetration. A) FK506 (20 nM) treated spermatozoa were used for both cumulus free zona intact oocytes as well as zona-free oocytes. B) Effect of FK506 treatment for (120-180 min) on sperm hyperactivation controlling parameters; VAP: average path velocity, VCL: curvilinear velocity, ALH: lateral head amplitude."}, "mouse caudal spermatozoa [4]": {"test_system": "mouse caudal spermatozoa", "experiment": "IVF of treated spermatozoa with cumulus-free zona-free oocytes", "format": "cell-based", "settings": "FK506 20 nM, FIG. 2A", "procedure": "Nanomolar doses of FK506 were used to treat spermatozoa and then use those cells were used for in vitro fertilization (IVF) assays. The treated spermatozoa were exposed to three different types oocyte conditions while performing IVF: a) regular IVF with intact oocyte-cumulus complex, b) cumulus-free intact oocyte and c) cumulus-free zona-free oocyte. FIG. 2 illustrates the detection of FK506 induced defect in sperm motility and oocyte penetration. A) FK506 (20 nM) treated spermatozoa were used for both cumulus free zona intact oocytes as well as zona-free oocytes. B) Effect of FK506 treatment for (120-180 min) on sperm hyperactivation controlling parameters; VAP: average path velocity, VCL: curvilinear velocity, ALH: lateral head amplitude."}, "oocytes": {"test_system": "oocytes", "experiment": "IVF with oocytes pre-incubated with inhibitor, spermatozoa untreated", "format": "cell-based, mouse", "settings": "oocytes incubated with same concentration of FK506 (20 nM)", "procedure": "FIG. 1 illustrates the effect of treatments of mouse caudal spermatozoa with calcineurin and GSK3 inhibitors on in vitro fertilization, indicated by two-cell stage formation. A) Spermatozoa were incubated under capacitating medium (viz. […] Additionally, oocytes were also incubated with same concentration of FK506, which it encounters during the IVF, the corresponding spermatozoa set was untreated. All data represent mean±SEM of n=3 for all the values. *p≤0.05 versus control. B) Dose response curve of FK506 at 0, 2.5, 5, 10, 20 & 50 nM concentration. C) Representative images showing effect of FK506 on IVF; black triangles directing the two-cell stage after fertilization of eggs."}, "GSK3α": {"test_system": "GSK3α", "experiment": "GSK3 phosphorylation in sperm by Western blot", "format": "cell-based, mouse", "settings": "FK506 20 nM during capacitation", "procedure": "(§1) The effect of calcineurin inhibitor on GSK3αβ phosphorylation was studied by Western blot procedure. Calcium dependence of calcineurin mediated GSK3α regulation was also checked. Both GSK3 activity and Calcineurin activity were measured in presence of FK506. FIG. 3 illustrates the regulation of GSK3α in mouse sperm by FK506. A) Modulation of phospho-serine/tyrosine profile GSK3α by FK506 (20 nM) during capacitation; for capacitation spermatozoa were incubated with ‘capacitation medium’, HTF or TYH for ˜90 min. B) phosphor-serine GSK3α status was checked during capacitation with TYH medium having high fatty acid containing BSA. C) Possible involvement of AKT in mediation of calcineurin induced regulation of GSK3α. D) Validation of involvement of extracellular calcium in GSK3α regulation; no calcium salt was added in the ‘−Ca^2+’ set, 10 μM BAPTA-AM was used to chelate intra-sperm Ca^2+ ions; […] phosphorylation was compared between wild type and ppp3r2 knockout sperm extract E) GSK3 activity of sperm cells under capacitating condition was checked using p^32radioactive ATP for phosphorylation of substrate. F) Co-relation among intracellular free calcium levels of different maturational stages of sperm cells with calcineurin activity was measured; for negative control, 20 nM of FK506 was used. All data represent mean±SEM of n=4 for all the values. *p≤0.05, **p≤0.01 versus control."}, "sperm GSK3": {"test_system": "sperm GSK3", "experiment": "GSK3 activity of sperm cells with p32 radioactive ATP", "format": "biochemical, mouse", "settings": "capacitating condition", "procedure": "as §1"}, "sperm calcineurin": {"target": "sperm calcineurin (Mus musculus, UniProt P26883+P48455+Q63811)", "experiment": "calcineurin activity in sperm", "format": "biochemical", "method": "The effect of calcineurin inhibitor on GSK3αβ phosphorylation was studied by Western blot procedure. Calcium dependence of calcineurin mediated GSK3α regulation was also checked. Both GSK3 activity and Calcineurin activity were measured in presence of FK506. […] A) Modulation of phospho-serine/tyrosine profile GSK3α by FK506 (20 nM) during capacitation; for capacitation spermatozoa were incubated with ‘capacitation medium’, HTF or TYH for ˜90 min. B) phosphor-serine GSK3α status was checked during capacitation with TYH medium having high fatty acid containing BSA. C) Possible involvement of AKT in mediation of calcineurin induced regulation of GSK3α. D) Validation of involvement of extracellular calcium in GSK3α regulation; no calcium salt was added in the ‘−Ca^2+’ set, 10 μM BAPTA-AM was used to chelate intra-sperm Ca^2+ ions; CatSper1 phosphorylation was compared between wild type and ppp3r2 knockout sperm extract E) GSK3 activity of sperm cells under capacitating condition was checked using p^32radioactive ATP for phosphorylation of substrate. F) Co-relation among intracellular free calcium levels of different maturational stages of sperm cells with calcineurin activity was measured; for negative control, 20 nM of FK506 was used."}}, "note": "Entries after “also recorded” stand apart in the source; their conditions may differ."}
{"smiles": "C=CC[C@@H]1/C=C(\\C)C[C@H](C)C[C@H](OC)[C@H]2O[C@@](O)(C(=O)C(=O)N3CCCC[C@H]3C(=O)O[C@H](/C(C)=C/[C@@H]3CC[C@@H](O)[C@H](OC)C3)[C@H](C)[C@@H](O)CC1=O)[C@H](C)C[C@@H]2OC", "note": "[FK506, tacrolimus]", "values": [{"measurement": "titer of the drug in blood", "setting": "[1]; 0.1% tacrolimus formulations", "value": "nanomolar titer"}, {"measurement": "bioavailability from an ointment formulation", "setting": "[1]; topical ointment", "value": "~0.5", "unit": "%"}, {"measurement": "skin side effects", "setting": "[2]", "value": "increased sensitivity of skin, burning, stinging or itching sensations"}, {"measurement": "inhibition of sperm ability to fertilize eggs in vitro, dose response", "setting": "mouse caudal spermatozoa [3]; FK506 at 0, 2.5, 5, 10, 20 & 50 nM", "value": "good enough to inhibit"}, {"measurement": "inhibition of fertilizing ability of sperm in vitro", "setting": "mouse caudal spermatozoa [3]; sperm incubated 1 hr at 37° C. in capacitating medium, FK506 20 nM, cyclosporin A 10 μM, two-cell stage formation, FIG. 1A", "value": "significantly and independently inhibit; also recorded: inhibited fertilization"}, {"measurement": "hyperactivation of sperm (VAP, VCL, ALH)", "setting": "mouse sperm", "value": "mostly unable to exhibit hyperactivity; also recorded: lack of attainment of hyperactivation"}, {"measurement": "fertilization of zona-free eggs by treated sperm", "setting": "mouse caudal spermatozoa [4]", "value": "not affecting sperm cells to fertilize zona-free eggs"}, {"measurement": "reduction in fertilization after pre-treatment of oocytes", "setting": "oocytes", "value": "did not result in any reduction in fertilization"}, {"measurement": "net phosphorylation of sperm GSK3", "setting": "GSK3α", "value": "increase in the net phosphorylation"}, {"measurement": "catalytic activity of sperm GSK3", "setting": "sperm GSK3", "value": "decrease in catalytic activity"}, {"measurement": "inhibition of sperm calcineurin", "setting": "sperm calcineurin", "value": "inhibits sperm calcineurin at nanomolar level"}]}
